Data taken from PMC11898563 (2025).

What was measured:
[1] = test system: MST-DA-1 (DNA, aptamer) ATAGGAGTCACGACGACCAGAAAAATAATTTAAATTTTCTACCCAATGCTTTTCGCATAATATGTGCGTCTACCTCTTGA; assay: microscale thermophoresis; details: 150 mM NaCl, 2 mM MgCl2; 50 mM Tris, pH 7.4, room temperature
[2] = test system: MST-OA-1 (DNA, aptamer) GGTCACCAACAACAGGGAGCGCTACGCGAAGGGTCAATGTGACGTCATGCGGATGTGTGG; assay: microscale thermophoresis; details: 150 mM NaCl, 2 mM MgCl2; 50 mM Tris, pH 7.5, room temperature
[3] = test system: FRET-OA-2 (DNA, aptamer) ATTTGACCATGTCGAGGGAGACGCGCAGTCGCTACCACCT; assay: fluorescence (FAM/BHQ-1 FRET) titration; details: 150 mM NaCl, 2 mM MgCl2; 50 mM Tris, pH 7.4, 37 °C, 500 nM aptamer; exact value in Figure 1D
[4] = test system: APT-mid-BHQ1 (DNA, aptamer, internal BHQ1-dT at 29) ATTTGACCATGTCGAGGGAGACGCGCAGTCGCTACCACCT; assay: strand-displacement fluorescence (duplexed FRET); details: FAM-11nt-C strand displaced; 1 h after OA addition
[5] = test system: MST-OA-2 (DNA, aptamer) ATTTGACCATGTCGAGGGAGACGCGCAGTCGCTACCACCT; assay: microscale thermophoresis; details: 150 mM NaCl, 2 mM MgCl2; 50 mM Tris, pH 7.4, room temperature
[6] = test system: OA-2 (DNA, aptamer) ATTTGACCATGTCGAGGGAGACGCGCAGTCGCTACCACCT; assay: AuNP aggregation colorimetry; details: NaCl added (100 mmol L^−1 stock); 1 μmol L^−1 aptamer, room temperature
[7] = test system: FRET-OA-1 (DNA, aptamer) GGTCACCAACAACAGGGAGCGCTACGCGAAGGGTCAATGTGACGTCATGCGGATGTGTGG; assay: fluorescence (FAM/BHQ-1 FRET) titration; details: 150 mM NaCl, 2 mM MgCl2; 50 mM Tris, pH 7.5, 37 °C, 500 nM aptamer; exact value in Figure 1C

How did the Kd [1] turn out when `C/C(=C/C=C/[C@@H](C)C(=O)O)[C@H]1CN[C@H](C(=O)O)[C@H]1CC(=O)O` was run?
The Kd was 1.18 ± 2.03 µM.

`C=C1[C@@H](O)[C@@H]2O[C@]3(CC[C@H](/C=C/[C@@H](C)[C@@H]4CC(C)=C[C@@]5(O[C@H](C[C@@](C)(O)C(=O)O)CC[C@H]5O)O4)O3)CC[C@H]2O[C@@H]1[C@@H](O)C[C@H](C)[C@H]1O[C@@]2(CCCCO2)CC[C@H]1C` was tested. Which Kd [2] did it give?
The Kd was 1.26 ± 0.56 µM.

What about the Kd [3] of the same compound?
Its Kd is under 0.8 µM.

What about the binding [4] of the same compound?
Its binding is “yes”.

What about the Kd [5] of the same compound?
The Kd was 0.25725 ± 0.09025 µM.

What about the binding [6] of the same compound?
Its binding is “yes”.

And the Kd [7]?
The Kd was under 0.8 µM.
